Assay [1] relates to contraction of guinea pig ileum induced by electrical field stimulation (acetylcholine release). As to the kind of experiment: Effect of increasing contraction of guinea pig ileum induced by electrical field stimulation. In kind it is cell-based. Conditions: electrical field stimulation once per 10 seconds, cumulative addition at intervals of 10 minutes, 37° C., read-out: Min. concn. causing increment of ileal contraction. As to the method: Effect of increasing contraction of guinea pig ileum induced by electrical field stimulation
This experiment was made according to the method of Sanger et al. [see Br. J. Pharmacol., 91, 77-87 (1987)]. The longitudinal muscle of the nonterminal ileum of a guinea pig was separated and vertically suspended in the Krebs-Henseleit solution (37° C.) in a Magnus tube by applying a load of 0.5 g to the end of the muscle. A mixed gas comprising 95% of oxygen and 5% of carbon dioxide was passed through the solution. The contraction of the muscle was isometrically determined. Electrical field stimulation was applied to the muscle by the use of a platinum electrode once per 10 seconds to induce the contraction of the muscle. The contraction was caused through the release of acetylcholine. After the muscle had been stabilized, a solution of a test compound was cumulatively added into the Magnus tube at intervals of 10 minutes. The effect of the test compound is represented by percentage based on the initial contraction. The minimum concentration of each test compound at which an increment was found in the contraction due to the release of acetylcholine is shown in Table 4.

For assay [2], the target named is T1, 2-methylserotonin-induced contraction of the ileum (5-HT3 antagonism) (Cavia porcellus, UniProt O70212).
T1 construct: from tissue; host or cells: isolated nonterminal ileum of male Hartley guinea pig
T1 sequence (O70212 20-490): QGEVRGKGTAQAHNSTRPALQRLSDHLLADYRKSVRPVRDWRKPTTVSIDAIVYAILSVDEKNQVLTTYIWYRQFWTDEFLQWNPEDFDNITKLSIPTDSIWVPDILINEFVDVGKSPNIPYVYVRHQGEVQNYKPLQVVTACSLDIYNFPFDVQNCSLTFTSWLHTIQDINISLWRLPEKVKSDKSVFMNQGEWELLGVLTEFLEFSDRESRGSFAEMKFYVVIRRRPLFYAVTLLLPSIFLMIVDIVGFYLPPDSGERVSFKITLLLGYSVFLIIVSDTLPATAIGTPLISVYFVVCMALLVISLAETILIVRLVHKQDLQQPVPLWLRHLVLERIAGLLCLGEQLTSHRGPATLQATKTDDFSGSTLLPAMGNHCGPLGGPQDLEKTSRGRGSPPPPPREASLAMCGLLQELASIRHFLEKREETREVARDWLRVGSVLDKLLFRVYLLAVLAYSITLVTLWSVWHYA
As to the kind of experiment: Antagonism against 2-methylserotonin-induced contraction or systole of ileum. Format: cell-based, guinea pig (Hartley male). Conditions: test compound added 30 minutes before 2-methylserotonin, nonterminal ileum, 37° C.; for Kb: read-out: pA2 (converted). The method, then: Antagonism against 2-methylserotonin-induced contraction or systole of ileum
This experiment was made according to the method of Sanger et al. [see Eur. J. Pharmacol., 159, 113-124 (1989)]. The nonterminal ileum of a Hartley male guinea pig was suspended in the Krebs-Henseleit solution (37° C.) by applying a load of 0.5 g to the end of the ileum and a gaseous mixture comprising 95% of oxygen and 5% of carbon dioxide was passed through the solution. The contraction of the ileum was isometrically determined. After allowing the ileum to stand for one or more hours for stabilization, a solution of a test compound was added to the solution, and after 30 minutes, 2-methylserotonin was noncumulatively added. The pA2 value was calculated from the rightward shift of the dose-response curve of the 2-methylserotonin-induced contraction caused by the test compound according to the method of Rossum et al. [see Arch. Int. Pharmacodyn., 143, 299(1963)]. BRL 24682 was used as a control in this experiment.

Assay [3] has as its system gastric emptying function. As to the kind of experiment: Activity for raising gastric emptying function. In kind it is in vivo, Fischer male rats. The conditions noted are these: oral (5 ml/kg), one hour before test food, versus control rat. As to the method: Activity for raising gastric emptying function
This experiment was made according to the method of Decktot et al. [see Eur. J. Pharmacol., 147, 313-316 (1988)]. Fischer male rats (weight: 160 to 180 g) were fasted for 18 hours before 3 ml of a test food comprising methylcellulose, beef broth, casein, sugar and corn starch was orally administered to each rat. One hour after the administration, the stomach was extirpated from each rat. The gastric emptying ratio was calculated from the weight of the test food remaining in the stomach. The ratio of rise of the gastric emptying function was determined by comparing the gastiric emptying ratio of a medicated rat with that of a control rat which had not administered any test compounds. Each test compound (5 ml/kg) was orally administered one hour before the administration of the test food. BRL 24682 was used as a control in this experiment.

Structures can show the parent of a compound that is named as a salt. Where two headings read alike, the source gives them in different places. A value given as a limit tells only on which side of the number the result lay.

The pA2 is a measure of antagonist potency on a negative log scale. Higher therefore signals a more potent antagonist.

Regarding `CC#CC(C)Oc1cc(N)c(Cl)cc1C(=O)N[C@H]1C[C@H]2CC[C@@H](C1)N2C` (single isomer, unassigned; (+)) [Example 36, (+)-endo-4-Amino-5-chloro-N-(8-methyl-8-azabicyclo[3.2.1]oct-3-yl)-2-{(3-pentyn-2-yl)oxy}benzamide hydrochloride], the minimal effective concentration in assay [1] (listed as 36 (-)-isomer, hydrochloride) amounted to 0.26 µM. Moreover, the Kb in assay [2] was 1.91 nM.

On to `C#CC(CC)Oc1cc(N)c(Cl)cc1C(=O)N[C@H]1C[C@H]2CC[C@@H](C1)N2C` (single isomer, unassigned; (+)) [Example 38, (+)-endo-4-Amino-5-chloro-N-(8-methyl-8-azabicyclo[3.2.1]oct-3-yl)-2-{(1-pentyn-3-yl)oxy}benzamide hydrochloride], for which, in assay [1] (listed as 38 (-)-isomer, hydrochloride), the minimal effective concentration is given as 0.13 µM. Moreover, the “Ratio of rise of gastric emptying function” value in assay [3] (listed as 38 (+)-isomer, hydrochloride) worked out at 20.5%. Also, in assay [2], the Kb was 0.955 nM. For the compound `C#CC(CC)Oc1cc(N)c(Cl)cc1C(=O)N[C@H]1C[C@H]2CC[C@@H](C1)N2C` (single isomer, unassigned; (-)) [Example 37, (-)-endo-4-Amino-5-chloro-N-(8-methyl-8-azabicyclo[3.2.1]oct-3-yl)-2-{(1-pentyn-3-yl)oxy}benzamide hydrochloride], the minimal effective concentration in assay [1] (listed as 37 (+)-isomer, hydrochloride) was 0.048 µM. Further, in assay [3] (listed as 37 (-)-isomer, hydrochloride), the “Ratio of rise of gastric emptying function” value is 15.3%.

On to `COc1cc(N)c(Cl)cc1C(=O)NC1CC2CCC(C1)N2C` (stereo not shown) [BRL 24682, reference compound], for which the minimal effective concentration in assay [1] is given as 0.086 µM. Also, the “Ratio of rise of gastric emptying function” value in assay [3] is recorded as 12.9%. Also, in assay [2], the pA2 was found to be 7.80. As to `CC#CC(C)Oc1cc(N)c(Cl)cc1C(=O)N[C@H]1C[C@H]2CC[C@@H](C1)N2C` (stereo partly drawn) [Example 2, endo-4-Amino-5-chloro-N-(8-methyl-8-azabicyclo[3.2.1]oct-3-yl) -2-{(3-pentyn-2-yl)oxy}benzamide hydrochloride], the minimal effective concentration in assay [1] (Cavia porcellus, 10 min) was found to be 0.05 µM. The “Ratio of rise of gastric emptying function” value in assay [3] was 24.5%. In addition, in assay [2], the Kb was 2.09 nM. Regarding `C#CC(CC)Oc1cc(N)c(Cl)cc1C(=O)N[C@H]1C[C@H]2CC[C@@H](C1)N2C` (stereo partly drawn) [Example 20, endo-4-Amino-5-chloro-N-(8-methyl-8-azabicyclo[3.2.1]oct-3-yl)-2-{(1-pentyn-3-yl)oxy}benzamide hydrochloride], in assay [1] (Cavia porcellus, 10 min), the minimal effective concentration came to 0.11 µM. `CC#CCOc1cc(N)c(Cl)cc1C(=O)N[C@H]1C[C@H]2CC[C@@H](C1)N2C` [Example 22, endo-4-Amino-2-(2-butynyloxy)-5-chloro-N-(8-methyl-8-azabicyclo[3.2.1]oct-3-yl)benzamide hydrochloride]: the minimal effective concentration in assay [1] (Cavia porcellus, 10 min) was > 100 µM. The same measure, in the same setting: for `CC#CCCOc1cc(N)c(Cl)cc1C(=O)N[C@H]1C[C@H]2CC[C@@H](C1)N2C` [Example 23, endo-4-Amino-5-chloro-N-(8-methyl-8-azabicyclo[3.2.1]oct-3-yl)-2-(3-pentynyloxy)benzamide hydrochloride] the value was > 100 µM. As to `C#CC(C)Oc1cc(N)c(Cl)cc1C(=O)N[C@H]1C[C@H]2CC[C@@H](C1)N2C` (stereo partly drawn) [Example 24, endo-4-Amino-2-{(3-butyn-2-yl)oxy}-5-chloro-N-(8-methyl-8-azabicyclo[3.2.1]oct-3-yl)benzamide hydrochloride], in assay [1] (Cavia porcellus, 10 min), the minimal effective concentration was found to be 0.17 µM. The “Ratio of rise of gastric emptying function” value in assay [3] is recorded as 13.2%. Regarding `CCC#CC(CC)Oc1cc(N)c(Cl)cc1C(=O)N[C@H]1C[C@H]2CC[C@@H](C1)N2C` (stereo partly drawn) [Example 25, endo-4-Amino-5-chloro-2-{(4-heptyn-3-yl)oxy)-N-(8-methyl-8-azabicyclo[3.2.1]oct-3-yl)benzamide hydrochloride], in assay [1] (Cavia porcellus, 10 min), the minimal effective concentration stood at 1 µM. Besides, in assay [3], the “Ratio of rise of gastric emptying function” value worked out at 26.3%. The Kb in assay [2] was 0.891 nM. Turning to `CCC#CCC(C)Oc1cc(N)c(Cl)cc1C(=O)N[C@H]1C[C@H]2CC[C@@H](C1)N2C` (stereo partly drawn) [Example 26, endo-4-Amino-S-chloro-2-{(4-heptyn-2-yl)oxy}-N-(8-methyl-8-azabicyclo[3.2.1]oct-3-yl)benzamide hydrochloride], in assay [1] (Cavia porcellus, 10 min), the minimal effective concentration was > 100 µM. Further, the Kb in assay [2] was 0.468 nM. Regarding `CC#CC(CC)Oc1cc(N)c(Cl)cc1C(=O)N[C@H]1C[C@H]2CC[C@@H](C1)N2C` (stereo partly drawn) [Example 27, endo-4-Amino-5-chloro-2-{(2-hexyn-4-yl)oxy}-N-(8-methyl-8-azabicyclo[3.2.1]oct-3-yl)benzamide hydrochloride], in assay [1] (Cavia porcellus, 10 min), the minimal effective concentration stood at 0.25 µM. The “Ratio of rise of gastric emptying function” value in assay [3] stood at 17.2%. In addition, the Kb in assay [2] is 0.407 nM. Turning to `CCC#CC(C)Oc1cc(N)c(Cl)cc1C(=O)N[C@H]1C[C@H]2CC[C@@H](C1)N2C` (stereo partly drawn) [Example 28, endo-4-Amino-5-chloro-2-{(3-hexyn-2-yl)oxy}-N-(8-methyl-8-azabicyclo[3.2.1]oct-3-yl)benzamide hydrochloride], the minimal effective concentration in assay [1] (Cavia porcellus, 10 min) was > 100 µM. As to `CN1[C@@H]2CC[C@H]1C[C@@H](NC(=O)c1cc(Cl)c(N)cc1OCCF)C2` [Example 30, endo-4-Amino-5-chloro-2-(2-fluoroethoxy)-N-(8-methyl-8-azabicyclo[3.2.1]oct-3-yl)benzamide hydrochloride], in assay [1] (Cavia porcellus, 10 min), the minimal effective concentration is 0.038 µM. On the same count and under the same terms, for `CN1[C@@H]2CC[C@H]1C[C@@H](NC(=O)c1cc(Cl)c(N)cc1OCCCC#N)C2` [Example 31, endo-4-Amino-5-chloro-2-(3-cyanopropoxy)-N-(8-methyl-8-azabicyclo[3.2.1]oct-3-yl)benzamide hydrochloride] the value was > 100 µM. As to `CN1[C@@H]2CC[C@H]1C[C@@H](NC(=O)c1cc(Cl)c(N)cc1OC1CCOCC1)C2` [Example 33, endo-4-Amino-5-chloro-N-(8-methyl-8-azabicyclo[3.2.1]-oct-3-yl)-2-(tetrahydro-4H-pyran-4-oxy)benzamide hydrochloride], the minimal effective concentration in assay [1] (Cavia porcellus, 10 min) stood at 1.8 µM. Further, the Kb in assay [2] was 6.17 nM. Regarding `C#CCC(C)Oc1cc(N)c(Cl)cc1C(=O)N[C@H]1C[C@H]2CC[C@@H](C1)N2C` (stereo partly drawn) [Example 40, endo-4-Amino-5-chloro-N-(8-methyl-8-azabicyclo[3.2.1]oct-3-yl)-2-{(4-pentyn-2-yl)oxy}benzamide hydrochloride], the minimal effective concentration in assay [1] (Cavia porcellus, 10 min) was 0.22 µM. Further, the “Ratio of rise of gastric emptying function” value in assay [3] was found to be 16.2%.

As to `C#CCCOc1cc(N)c(Cl)cc1C(=O)N[C@H]1C[C@H]2CC[C@@H](C1)N2C` [Example 46, endo-4-Amino-2-(3-butynyloxy)-5-chloro-N-(8-methyl-8-azabicyclo[3.2.1]oct-3-yl)benzamide hydrochloride], in assay [1] (Cavia porcellus, 10 min), the minimal effective concentration was 0.16 µM.
